Experimental data taken from the Deep4Chem optical property database.

Test: photoluminescence quantum yield (fraction); solvent given as SMILES

CCN(CC)c1ccc2cc(/C=C/C(=O)c3cc4ccc(N(CC)CC)cc4oc3=O)c(=O)oc2c1
photoluminescence quantum yield (in C1CCOC1): 0.53
photoluminescence quantum yield (in C1COCCO1): 0.58
photoluminescence quantum yield (in CC#N): 0.11
photoluminescence quantum yield (in CC(C)=O): 0.27
photoluminescence quantum yield (in CCO): 0.07
photoluminescence quantum yield (in CCOC(C)=O): 0.57
photoluminescence quantum yield (in CN(C)C=O): 0.01
photoluminescence quantum yield (in CS(C)=O): 0.06
photoluminescence quantum yield (in Cc1ccccc1): 0.68
photoluminescence quantum yield (in ClC(Cl)Cl): 0.5
photoluminescence quantum yield (in ClCCl): 0.59
photoluminescence quantum yield (in O): 0

Cc1cc(C)c(B(c2c(C)cc(C)cc2C)N2c3ccccc3C(C)(C)c3ccccc32)c(C)c1
photoluminescence quantum yield (in C1CCCCC1): 0.931
photoluminescence quantum yield (in Cc1ccccc1): 0.802
photoluminescence quantum yield (in ClCCl): 0.9

N#Cc1c(-n2c3ccccc3c3cc(I)ccc32)c(C#N)c(-n2c3ccccc3c3cc(I)ccc32)c(-n2c3ccccc3c3cc(I)ccc32)c1-n1c2ccccc2c2cc(I)ccc21
photoluminescence quantum yield (in Cc1ccccc1): 0.78

CC(=O)c1c(N[C@@H](Cc2ccc(O)cc2)C(=O)O)c2ccc(N(C)C)cc2oc1=O
photoluminescence quantum yield (in ClCCl): 0.005

CCN1\C(=C/C=C/C=C/C2=[N+](CC)c3ccc4ccccc4c3C2(C)C)C(C)(C)c2c1ccc1ccccc21
photoluminescence quantum yield (in CS(C)=O): 0.302

CCCCc1ccc2ccc3cccc4ccc1c2c34
photoluminescence quantum yield (in CCCCCC): 0.35
photoluminescence quantum yield (in CO): 0.31
photoluminescence quantum yield (in ClCCl): 0.41

CCC1(CC)c2cc(/C=C/c3ccc(N(c4ccccc4)c4ccccc4)cc3)ccc2-c2ccc(/C=C/c3ccc(N(c4ccccc4)c4ccccc4)cc3)cc21
photoluminescence quantum yield (in Cc1ccccc1): 0.84

F[B-]1(F)OC(c2ccccc2)=C(c2ccccc2)c2oc3ccccc3[n+]21
photoluminescence quantum yield (in C1CCOC1): 0.013

COc1ccc2c3c(cccc13)C(=O)c1ccccc1-2
photoluminescence quantum yield (in CC#N): 0.62
photoluminescence quantum yield (in CC(C)=O): 0.56
photoluminescence quantum yield (in CC(C)O): 0.54
photoluminescence quantum yield (in CCCCOCCCC): 0.01
photoluminescence quantum yield (in CCOC(C)=O): 0.23
photoluminescence quantum yield (in CCOCC): 0.05
photoluminescence quantum yield (in CO): 0.45
photoluminescence quantum yield (in Cc1ccccc1): 0.1
photoluminescence quantum yield (in Clc1ccccc1): 0.41
photoluminescence quantum yield (in N#Cc1ccccc1): 0.69
photoluminescence quantum yield (in O=C1CCCCC1): 0.57

C=CCNS(=O)(=O)c1ccc2c(c1)C(=O)/C(=C1\Sc3ccc(S(=O)(=O)NCC=C)cc3C1=O)S2
photoluminescence quantum yield (in CN(C)C=O): 0.197
photoluminescence quantum yield (in CS(C)=O): 0.006

Cc1ccc2ccc3cccc4ccc1c2c34
photoluminescence quantum yield (in CCCCCC): 0.34
photoluminescence quantum yield (in CO): 0.28
photoluminescence quantum yield (in ClCCl): 0.45

COC(=O)c1[nH]c(-c2ccccc2)c2nnc3c4ccccc4oc3c12
photoluminescence quantum yield (in ClCCl): 0.167

COc1cccc(-c2[nH]c(=O)n3c2-c2ccccc2C3=O)c1O
photoluminescence quantum yield (in CC#N): 0.51
photoluminescence quantum yield (in CO): 0.02
photoluminescence quantum yield (in ClCCl): 0.75

COc1cc2c3c4c(c5ccc(C(C)(C)C)cc5c5cc(C(C)(C)C)cc(c2c(OC)c1OC)c45)=[N+]1C3=Nc2c3c4cc(OC)c(OC)c(OC)c4c4cc(C(C)(C)C)cc5c6cc(C(C)(C)C)ccc6c(c3c54)n2[B-]1(F)F
photoluminescence quantum yield (in Cc1ccccc1): 0.07

O=Cc1ccc2nc(C#Cc3ccc(N(c4ccccc4)c4ccccc4)cc3)sc2c1
photoluminescence quantum yield (in Cc1ccccc1): 1

c1ccc(-c2nc(-c3ccccc3)nc(-c3ccc(-c4ccc(N5c6ccccc6[Si](c6ccccc6)(c6ccccc6)c6ccccc65)cc4)cc3)n2)cc1
photoluminescence quantum yield (in c1cc(-n2c3ccccc3c3ccccc32)cc(-n2c3ccccc3c3ccccc32)c1): 0.38

C[Si]1(C)c2ccc(-c3ccccc3)cc2C=Cc2cc(-c3ccccc3)ccc21
photoluminescence quantum yield (in ClCCl): 0.38

F[B-]1(F)n2ccnc2-c2cccc[n+]21
photoluminescence quantum yield (in C1CCCCC1): 0.03
photoluminescence quantum yield (in C1CCOC1): 0.44
photoluminescence quantum yield (in C1COCCO1): 0.28
photoluminescence quantum yield (in CC#N): 0.28
photoluminescence quantum yield (in CCCCCC): 0.03
photoluminescence quantum yield (in CO): 0.03
photoluminescence quantum yield (in ClC(Cl)Cl): 0.14

CCN(CC)c1ccc2cc(C#N)/c(=N\C(=O)C(C)C)oc2c1
photoluminescence quantum yield (in CCO): 0.047
photoluminescence quantum yield (in ClCCl): 0.83

N#C/C(=C\c1ccc(-c2ccncc2)cc1)c1ccc(-c2ccncc2)cc1
photoluminescence quantum yield (in ClCCl): 0.002

Cn1c2nc(=O)[nH]c(=O)c-2nc2ccccc21
photoluminescence quantum yield (in CC1CCCO1): 0.3

Cc1ccc(-c2nc(-c3ccccc3O)[nH]c2-c2ccc(C)cc2)cc1
photoluminescence quantum yield (in CO): 0.28
